According to ChEMBL document CHEMBL6096631, “The application of PROTACs in immune-inflammation diseases” (Bioorg Med Chem, 2024):
Each block holds one compound with its values, some of them ahead of it.

Experiments:
Type in all cases: cell-based
[1] = biological target: T1, von Hippel-Lindau disease tumor suppressor/Mitogen-activated protein kinase 14 (Homo sapiens, UniProt Q16539+P40337); test: PROTAC activity at VHL/p38alpha in human THP-1 cells assessed as MAPK degradation incubated for 16 hrs by Western blot analysis
[2] = biological target: T1, von Hippel-Lindau disease tumor suppressor/Mitogen-activated protein kinase 14; test: PROTAC activity at VHL/p38alpha in human THP-1 cells assessed as induction of protein degradation by measuring maximal efficacy at 10 uM incubated for 16 hrs by Western blot analysis relative to control
Target sequence in this assay (P40337 whole entry partner): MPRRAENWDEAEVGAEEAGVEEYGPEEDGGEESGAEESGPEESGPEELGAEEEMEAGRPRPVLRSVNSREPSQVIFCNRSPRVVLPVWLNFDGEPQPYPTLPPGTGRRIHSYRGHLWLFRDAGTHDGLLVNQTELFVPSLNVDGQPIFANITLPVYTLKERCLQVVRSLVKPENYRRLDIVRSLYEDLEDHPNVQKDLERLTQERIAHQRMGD
Target sequence in this assay (Q16539 2-360 limits assumed): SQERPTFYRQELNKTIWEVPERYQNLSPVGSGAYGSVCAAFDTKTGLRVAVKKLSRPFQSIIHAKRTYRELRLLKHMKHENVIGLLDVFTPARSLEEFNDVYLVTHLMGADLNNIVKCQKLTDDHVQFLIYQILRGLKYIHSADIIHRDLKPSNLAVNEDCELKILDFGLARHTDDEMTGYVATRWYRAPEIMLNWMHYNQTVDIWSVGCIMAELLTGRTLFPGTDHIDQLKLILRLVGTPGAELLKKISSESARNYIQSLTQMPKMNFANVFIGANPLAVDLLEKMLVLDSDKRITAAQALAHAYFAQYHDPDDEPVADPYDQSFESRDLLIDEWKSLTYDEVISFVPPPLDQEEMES

[3] = biological target: T2, von Hippel-Lindau disease tumor suppressor/Receptor-interacting serine/threonine-protein kinase 2 (Homo sapiens, UniProt O43353+P40337); test: PROTAC activity at VHL/RIPK2 in human THP-1 cells assessed as RIPK2 degradation by measuring maximal efficacy at 10 nM measured after 16 hrs by Western blot analysis relative to control
Target sequence in this assay (O43353 whole entry, looked up): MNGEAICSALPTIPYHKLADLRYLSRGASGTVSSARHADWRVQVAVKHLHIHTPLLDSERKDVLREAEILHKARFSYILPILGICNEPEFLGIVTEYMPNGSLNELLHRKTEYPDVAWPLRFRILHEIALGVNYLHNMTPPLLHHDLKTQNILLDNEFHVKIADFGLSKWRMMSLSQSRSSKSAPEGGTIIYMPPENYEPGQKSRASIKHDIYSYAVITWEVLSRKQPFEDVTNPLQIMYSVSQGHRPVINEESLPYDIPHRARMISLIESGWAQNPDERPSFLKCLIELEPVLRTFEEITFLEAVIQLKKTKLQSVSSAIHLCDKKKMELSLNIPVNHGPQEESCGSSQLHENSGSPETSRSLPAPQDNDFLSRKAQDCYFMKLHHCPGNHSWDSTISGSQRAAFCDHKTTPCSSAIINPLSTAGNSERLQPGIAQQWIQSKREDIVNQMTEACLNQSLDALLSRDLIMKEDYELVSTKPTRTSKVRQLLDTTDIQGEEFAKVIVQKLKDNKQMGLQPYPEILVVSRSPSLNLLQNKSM
Target sequence in this assay (P40337 whole entry, looked up): as the sequence (P40337 whole entry partner) above

[4] = biological target: T3, Protein cereblon/Interleukin-1 receptor-associated kinase 4 (Homo sapiens, UniProt Q9NWZ3+Q96SW2); test: PROTAC activity at CRBN/IRAK4 in human KARPAS-299 cells assessed as induction of IRAK4 degradation
Target sequence in this assay (Q9NWZ3 whole entry): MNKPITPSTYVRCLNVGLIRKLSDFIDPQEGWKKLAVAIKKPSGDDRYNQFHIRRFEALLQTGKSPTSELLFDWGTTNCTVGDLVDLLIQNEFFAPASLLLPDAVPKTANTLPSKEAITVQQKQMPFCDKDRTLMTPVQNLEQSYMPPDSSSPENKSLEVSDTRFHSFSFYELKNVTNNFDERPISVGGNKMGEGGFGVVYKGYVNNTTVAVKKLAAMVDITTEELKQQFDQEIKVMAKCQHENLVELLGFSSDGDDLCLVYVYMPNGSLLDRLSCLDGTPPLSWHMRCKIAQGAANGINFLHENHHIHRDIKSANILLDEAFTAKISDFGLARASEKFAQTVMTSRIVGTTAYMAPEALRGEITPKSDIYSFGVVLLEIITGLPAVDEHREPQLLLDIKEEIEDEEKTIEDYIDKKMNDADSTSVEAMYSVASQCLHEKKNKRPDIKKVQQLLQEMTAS
Target sequence in this assay (Q96SW2 whole entry): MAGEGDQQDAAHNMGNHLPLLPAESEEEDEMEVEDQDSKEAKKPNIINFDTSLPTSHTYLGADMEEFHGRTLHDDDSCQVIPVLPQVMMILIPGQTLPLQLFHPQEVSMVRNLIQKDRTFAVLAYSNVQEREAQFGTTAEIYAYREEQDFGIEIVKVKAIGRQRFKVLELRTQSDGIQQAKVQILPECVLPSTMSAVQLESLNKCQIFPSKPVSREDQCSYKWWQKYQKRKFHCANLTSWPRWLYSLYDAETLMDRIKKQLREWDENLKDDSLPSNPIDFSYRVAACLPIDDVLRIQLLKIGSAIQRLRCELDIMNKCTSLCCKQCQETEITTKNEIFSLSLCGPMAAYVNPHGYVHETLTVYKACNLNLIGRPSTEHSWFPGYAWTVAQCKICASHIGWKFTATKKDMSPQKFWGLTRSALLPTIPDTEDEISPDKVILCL

[5] = biological target: T4, von Hippel-Lindau disease tumor suppressor/Interleukin-1 receptor-associated kinase 4 (Homo sapiens, UniProt Q9NWZ3+P40337); test: PROTAC activity at VHL E3 ligase/IRAK4 in human PBMC cells assessed as induction of degradation of IRAK4 incubated overnight by immunoblot analysis
Target sequence in this assay (Q9NWZ3 whole entry): as the sequence (Q9NWZ3 whole entry) above
Target sequence in this assay (P40337 whole entry): as the sequence (P40337 whole entry partner) above

[6] = biological target: T4, von Hippel-Lindau disease tumor suppressor/Interleukin-1 receptor-associated kinase 4; test: PROTAC activity at VHL E3 ligase/IRAK4 in human PBMC cells assessed as induction of degradation of IRAK4 incubated for 16 hrs by immunoblot analysis relative to control
[7] = biological target: T2, von Hippel-Lindau disease tumor suppressor/Receptor-interacting serine/threonine-protein kinase 2; test: PROTAC activity at VHL/RIPK2 in human THP-1 cells assessed as RIPK2 degradation measured after 16 hrs by Western blot analysis
Target sequence in this assay (O43353 whole entry): as the sequence (O43353 whole entry, looked up) above
Target sequence in this assay (P40337 whole entry): as the sequence (P40337 whole entry partner) above

[8] = biological target: Protein cereblon/Non-receptor tyrosine-protein kinase TYK2 (Homo sapiens, UniProt P29597+Q96SW2); test: PROTAC activity at CRBN/TYK2 in HEL cells assessed as TYK2 degradation incubated for 24 hrs by Western blotting analysis
[9] = biological target: T5, Protein cereblon/Tyrosine-protein kinase BTK (Homo sapiens, UniProt Q06187+Q96SW2); test: PROTAC activity at CRBN/BTK in human Ramos cells assessed as protein degradation
Target sequence in this assay (Q06187 whole entry): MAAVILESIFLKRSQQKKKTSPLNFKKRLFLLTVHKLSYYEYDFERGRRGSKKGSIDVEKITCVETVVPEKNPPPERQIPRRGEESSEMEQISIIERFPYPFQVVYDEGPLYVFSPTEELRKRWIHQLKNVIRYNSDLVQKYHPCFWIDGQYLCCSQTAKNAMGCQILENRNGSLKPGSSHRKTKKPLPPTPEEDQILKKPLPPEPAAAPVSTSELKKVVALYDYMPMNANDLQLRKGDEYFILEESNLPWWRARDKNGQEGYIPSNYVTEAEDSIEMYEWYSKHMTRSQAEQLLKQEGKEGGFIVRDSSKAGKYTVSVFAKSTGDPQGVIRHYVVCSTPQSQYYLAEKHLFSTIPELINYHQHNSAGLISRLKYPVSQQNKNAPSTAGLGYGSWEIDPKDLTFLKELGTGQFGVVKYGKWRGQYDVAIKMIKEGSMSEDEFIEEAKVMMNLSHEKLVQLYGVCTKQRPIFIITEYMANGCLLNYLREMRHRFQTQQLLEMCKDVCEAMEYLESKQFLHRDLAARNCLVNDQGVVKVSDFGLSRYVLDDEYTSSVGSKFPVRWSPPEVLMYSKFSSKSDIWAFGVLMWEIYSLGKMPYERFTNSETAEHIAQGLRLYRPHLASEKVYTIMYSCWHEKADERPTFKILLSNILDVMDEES
Target sequence in this assay (Q96SW2 whole entry): as the sequence (Q96SW2 whole entry) above

[10] = biological target: T5, Protein cereblon/Tyrosine-protein kinase BTK; test: PROTAC activity at CRBN/BTK in human Ramos cells assessed as induction of protein degradation by measuring maximal efficacy at 10 uM relative to control
[11] = biological target: T5, Protein cereblon/Tyrosine-protein kinase BTK; test: PROTAC activity at CRBN/BTK in human Huh-7 cells assessed as protein degradation
Target sequence in this assay (Q06187 whole entry): as the sequence (Q06187 whole entry) above
Target sequence in this assay (Q96SW2 whole entry): as the sequence (Q96SW2 whole entry) above

[12] = biological target: T3, Protein cereblon/Interleukin-1 receptor-associated kinase 4; test: PROTAC activity at CRBN/IRAK4 in human HEK293T cells assessed as induction of protein degradation by measuring maximal efficacy at 10 uM measured after 24 hrs by immunoblotting analysis relative to control
[13] = PROTAC activity at VHL/human p38alpha in MDA-MB-231 cells assessed as p38alpha degradation
[14] = biological target: T3, Protein cereblon/Interleukin-1 receptor-associated kinase 4; test: PROTAC activity at CRBN/IRAK4 in human PBMC cells assessed as induction of degradation measured after 24 hrs by Immuno-blotting analysis
Target sequence in this assay (Q9NWZ3 whole entry): as the sequence (Q9NWZ3 whole entry) above
Target sequence in this assay (Q96SW2 whole entry): as the sequence (Q96SW2 whole entry) above

- DC50 [1]: 46.2 nM
- Emax [2]: 99.4%
SMILES: COc1cc2c(Oc3ccc(NC(=O)C4(C(=O)Nc5ccc(F)cc5)CC4)cc3F)ccnc2cc1OCCOCCOCCOc1cc(-c2scnc2C)ccc1CNC(=O)[C@@H]1C[C@@H](O)CN1C(=O)[C@H](C(C)C)N1Cc2ccccc2C1=O

- Emax [3]: 90%
SMILES: CN[C@H](C)C(=O)N[C@@H](C(=O)N1C[C@H](NC(=O)c2cnc(N3CCN(CCCOc4cc5ncnc(Nc6n[nH]c(C)c6C)c5cc4S(=O)(=O)C(C)(C)C)CC3)cn2)C[C@@H]1C(=O)Nc1c(F)cccc1F)C(C)(C)C

- DC50 [4]: 17.3 nM
SMILES: O=C1CCC(N2C(=O)c3cccc(N4CCN(C(=O)C5CCN(c6ccc(NC(=O)c7cnc(Oc8ccccc8)nc7)cc6)CC5)CC4)c3C2=O)C(=O)N1 (centres undefined)

- DC50 [5]: 227 nM
- Emax [6]: 91.7%
SMILES: CCn1nc(C)cc1C(=O)Nc1nc2cc(C(=O)NCCCCCCCCC(=O)N[C@H](C(=O)N3C[C@H](O)C[C@H]3C(=O)NCc3ccc(-c4scnc4C)cc3)C(C)(C)C)cc(OC)c2n1C/C=C/Cn1c(NC(=O)c2cc(C)nn2CC)nc2cc(C(N)=O)cc(OCCCN3CCOCC3)c21

- Emax [2]: 97.4%
SMILES: COc1cc2c(Oc3ccc(NC(=O)C4(C(=O)Nc5ccc(F)cc5)CC4)cc3F)ccnc2cc1OCCCCOCCCCOCC(=O)N[C@H](C(=O)N1C[C@H](O)C[C@H]1C(=O)NCc1ccc(-c2scnc2C)cc1)C(C)(C)C

- DC50 [7]: 9.4 nM
- Emax [3]: 94.3%
SMILES: CN[C@@H](C)C(=O)N[C@H](C(=O)N1CCC[C@H]1c1nc(C(=O)c2ccc(F)cc2)cs1)C1CCN(C(=O)c2cnc(N3CCN(CCOc4cc5ncnc(Nc6n[nH]c(C)c6C)c5cc4S(=O)(=O)C(C)(C)C)CC3)nc2)CC1

- DC50 [5]: 3.2 nM
SMILES: O=C(/C=C/C(=O)Nc1ccc(NC(=O)c2ccc([N+](=O)[O-])o2)cc1)NCCCCCCNc1cccc2c1C(=O)N(C1CCC(=O)NC1=O)C2=O (centres undefined)

- DC50 [8]: 14 nM
SMILES: CNC(=O)c1cnc(Nc2ccc(C(=O)NCCCCCCCCCC(=O)N[C@H](C(=O)N3C[C@H](O)C[C@H]3C(=O)NCc3ccc(-c4scnc4C)cc3)C(C)(C)C)cn2)cc1Nc1cccc(-c2ncn(C)n2)c1OC

- DC50 [9]: 3.18 nM
- Emax [10]: 99.9%
SMILES: Nc1ncnc2c1c(-c1ccc(Oc3ccccc3)cc1)nn2C1CCN(C(=O)CN2CCN(CC3CN(c4ccc5c(c4)C(=O)N(C4CCC(=O)NC4=O)C5=O)C3)CC2)CC1 (centres undefined)

- Emax [3]: 95%
SMILES: Cc1ncsc1-c1ccc(CNC(=O)[C@@H]2C[C@@H](O)CN2C(=O)[C@@H](NC(=O)COCCOCCOCCOCCOc2cc3nccc(Nc4ccc5scnc5c4)c3cc2S(=O)(=O)C(C)(C)C)C(C)(C)C)cc1

- DC50 [11]: 17 nM
SMILES: COc1cc(C)c(Sc2cnc(NC(=O)c3ccc(N4CCN(CCCCCCCNC(=O)COc5cccc6c5C(=O)N(C5CCC(=O)NC5=O)C6=O)CC4)cc3)s2)cc1C(=O)N1CCN(C(C)=O)CC1 (centres undefined)

- Emax [12]: 90%
SMILES: CC(C)Nc1cc(-n2ccc3cc(C#N)cnc32)ncc1C(=O)N[C@H]1CC[C@H](C(=O)NCCOCCNC(=O)COc2cccc3c2C(=O)N(C2CCC(=O)NC2=O)C3=O)CC1 (some centres undefined)

- DC50 [13]: 48.9 nM
SMILES: Cc1ccc(C(=O)NCCCCc2cn(CCCC(=O)NCCCCNc3cccc4c3C(=O)N(C3CCC(=O)NC3=O)C4=O)nn2)cc1-n1c(C)cc(OCc2ccc(F)cc2F)c(Br)c1=O (centres undefined)

- DC50 [14]: 151 nM
SMILES: CC[C@@H]1[C@H](F)C(=O)N[C@@H]1COc1ncc(C#CCN2CCC3(CC2)CCN(c2ncc(C(=O)N[C@H](C(=O)N4C[C@H](O)C[C@H]4C(=O)NCc4ccc(-c5scnc5C)cc4)C(C)(C)C)cn2)CC3)c2cc(C(N)=O)c(OC)cc12

- DC50 [13]: 19.1 nM
SMILES: Cc1ccc(C(=O)NCCCCc2cn(CCCC(=O)NCCCCCCc3cccc4c3CN(C3CCC(=O)NC3=O)C4=O)nn2)cc1-n1c(C)cc(OCc2ccc(F)cc2F)c(Br)c1=O (centres undefined)
